Holding throughout (assay): NCI tumour cell line growth inhibition, 48 h
For experiment [1], the system named is 786-0.
The subject of experiment [2] is A498.
Experiment [3] deals with BT-549.
Experiment [4] deals with COLO 205.
Experiment [5] concerns HCT-116.
Experiment [6] deals with HCT-15.
In experiment [7] the test system is HT-29.
Experiment [8] relates to MDA-MB-231.
In experiment [9] the test system is MDA-MB-435.
Experiment [10] concerns OVCAR-4.
Experiment [11] concerns RXF 393.
Experiment [12] relates to SF-295.
In experiment [13] the test system is SK-MEL-28.
The test system of experiment [14] is SK-MEL-2.
For experiment [15], the system named is SK-OV-3.
For experiment [16], the system named is SR.
Experiment [17] deals with T47D.
For experiment [18], the system named is TK-10.
In experiment [19] the test system is UACC-62.
The test system of experiment [20] is SF-268.

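Following 48 hours of exposure in 96-well plates, responses at five concentrations were used to interpolate endpoints linearly. Here, GI50 denotes the concentration required for 50% inhibition of growth.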 Active and inactive are the calls of the source. Rule as the data show it: active = GI50 up to about 1.1 µM and inactive = higher.

With `Cc1ccc(S(=O)(=O)Nc2ccccc2C=O)cc1`, the GI50 in [1] is 16.3 µM (inactive); in experiment [2] it was 30 µM (inactive); in experiment [3], 18.6 µM (inactive); in experiment [4], 16.9 µM (inactive); in [5], 14.8 µM (inactive); in experiment [6], 7.4 µM. Moreover, the GI50 is 22.8 µM (inactive) in experiment [7]; 15.1 µM (inactive) in experiment [8]; 10.5 µM (inactive) in experiment [9]; 16.4 µM (inactive) in [10]; 25.6 µM (inactive) in experiment [11]; 18.9 µM (inactive) in experiment [12]. Also, the GI50 is 21.3 µM (inactive) in [13]; 11.9 µM (inactive) in [14]; 26.8 µM (inactive) in experiment [15]; 18.2 µM (inactive) in experiment [16]; 14.9 µM (inactive) in experiment [17]; 17.9 µM (inactive) in experiment [18]. The GI50 in [19] was 12.5 µM (inactive).

For `COCCOC1=CC(=O)c2c(O)ccc(O)c2C1=O`, the GI50 in experiment [1] is 1.64 µM (inactive); in experiment [2] it was 1.79 µM (inactive); in experiment [3], 1.77 µM (inactive); in [4] it was 0.284 µM (active); in experiment [5] it was 0.285 µM (active); in [6] it was 1.02 µM. Besides, the GI50 in [7] is 0.585 µM (active); in [8], 1.75 µM (inactive); in [9] it was 0.179 µM (active); in experiment [10] it was 1.89 µM (inactive); in experiment [11], 2.19 µM (inactive); in experiment [20] it was 1.89 µM (inactive). Also, the GI50 is 1.69 µM (inactive) in experiment [12]; 1.52 µM (inactive) in experiment [13]; 1.27 µM (inactive) in [14]; 8.41 µM (inactive) in [15]; 5.01 µM (inactive) in experiment [16]; 2.36 µM (inactive) in experiment [17]. The GI50 was 1.91 µM (inactive) in experiment [18] and 1.85 µM (inactive) in [19].

For `Cc1sc2nc3n(c(=O)c2c1C)N=C(c1ccc(Cl)cc1)CS3`, the GI50 in experiment [1] is > 100 µM (inactive); in experiment [2], > 100 µM (inactive); in experiment [3] it was 31.6 µM (inactive); in experiment [4], > 100 µM (inactive); in experiment [5], > 100 µM (inactive); in experiment [6] it was more than 100 µM. Also, the GI50 in experiment [7], in experiment [8], in experiment [9], in experiment [10], in [11] and in [20] was > 100 µM (inactive) each time. For the same compound, the GI50 in experiment [12], in experiment [13], in experiment [15], in experiment [16], in experiment [17] and in [19] was > 100 µM (inactive) each time.

As to `CC(C)NC(=O)OCc1c(COC(=O)NC(C)C)c(-c2cc[n+](COC(=O)C(C)C)cc2)n2c1CCC2`, the GI50 in experiment [1] is 28 µM (inactive); in [2], 13.9 µM (inactive); in [3], > 100 µM (inactive); in experiment [4], > 100 µM (inactive); in experiment [5], > 100 µM (inactive); in experiment [6], more than 100 µM. Also, the GI50 in experiment [7] is > 100 µM (inactive); in experiment [8], > 100 µM (inactive); in experiment [9] it was > 100 µM (inactive); in experiment [10] it was > 100 µM (inactive); in experiment [11], 21 µM (inactive); in experiment [20] it was > 74.8 µM (inactive). For the same compound, the GI50 in experiment [12] was > 83.2 µM (inactive); in [13], > 100 µM (inactive); in experiment [14] it was > 100 µM (inactive); in [15] it was 98.4 µM (inactive); in experiment [16], > 25.2 µM (inactive); in experiment [17], > 94.8 µM (inactive). The results for the GI50 in experiment [18] and in experiment [19] were 41.5 µM (inactive) and 48.9 µM (inactive), respectively.

Consider `Cc1nn(-c2ccccc2)c2c1C(c1cc3ccccc3nc1Cl)NC(=S)N2` (stereo not given), for which the GI50 in [1] was 33 µM (inactive); in experiment [2] it was 71 µM (inactive); in [3], 47.4 µM (inactive); in experiment [4] it was > 100 µM (inactive); in [5], 36.1 µM (inactive); in experiment [6] it was 31.8 µM. The GI50 in experiment [7] is 44.9 µM (inactive); in [8] it was > 100 µM (inactive); in experiment [9], 29 µM (inactive); in experiment [10], 65.3 µM (inactive); in experiment [11], 26.3 µM (inactive); in experiment [20], 34.8 µM (inactive). Besides, the GI50 was 43.4 µM (inactive) in [12]; 14.5 µM (inactive) in [14]; 97.5 µM (inactive) in experiment [15]; 44.6 µM (inactive) in [16]; > 100 µM (inactive) in [17]; 58.5 µM (inactive) in experiment [18]. Moreover, the GI50 in experiment [19] was 76.7 µM (inactive).

Regarding `O=C1CSC(c2ccc([N+](=O)[O-])cc2)N1c1ccc(-c2ccc(-n3c(-c4ccccc4)nc4ccccc4c3=O)cc2)cc1` (stereo not given), the GI50 in experiment [1] was 70.8 µM (inactive); in experiment [2], > 100 µM (inactive); in experiment [3] it was 53.3 µM (inactive); in experiment [4], 43.5 µM (inactive); in [5], 60.5 µM (inactive); in experiment [6] it was 33.7 µM. The GI50 in experiment [7] is 49.7 µM (inactive); in experiment [8], 49.8 µM (inactive); in [9], 59.7 µM (inactive); in [10], 34.2 µM (inactive); in [20], > 100 µM (inactive); in experiment [12], 85.3 µM (inactive). The GI50 is 81.3 µM (inactive) in experiment [13]; 44.2 µM (inactive) in experiment [14]; > 100 µM (inactive) in experiment [15]; 18.7 µM (inactive) in [16]; 21.5 µM (inactive) in [17]; 66.2 µM (inactive) in experiment [18]. Besides, in experiment [19], the GI50 was 35.1 µM (inactive).

As for `c1ccc(C(/C(=N/c2ccc(Cc3ccc(/N=C(\C(c4ccccc4)c4ccccc4)N4CC4)cc3)cc2)N2CC2)c2ccccc2)cc1`, the GI50 in experiment [1] is 14.8 µM (inactive); in [2], 12.5 µM (inactive); in [3], 10.5 µM (inactive); in [4] it was 3.27 µM (inactive); in experiment [5], 4.36 µM (inactive); in experiment [6], 10.1 µM. Also, the GI50 in experiment [7] is 3.1 µM (inactive); in experiment [8], 12.2 µM (inactive); in experiment [9] it was 8.73 µM (inactive); in [11], 1.09 µM (active); in experiment [20], 4.86 µM (inactive); in [12], 9.31 µM (inactive). For the same compound, the GI50 is 9.46 µM (inactive) in experiment [13]; 7.01 µM (inactive) in [14]; < 0.01 µM (active) in experiment [15]; 1.31 µM (inactive) in experiment [16]; 2.61 µM (inactive) in [17]; 14.2 µM (inactive) in experiment [18]. Moreover, in experiment [19], the GI50 was 2.32 µM (inactive).

For the compound `O=S(=O)(O)c1ccc(/N=N/c2ccc(/N=N/c3c(O)ccc4ccccc34)cc2)cc1`, the GI50 in [1] was > 100 µM (inactive); in experiment [3] it was > 100 µM (inactive); in experiment [4], > 100 µM (inactive); in experiment [5] it was > 100 µM (inactive); in experiment [6], more than 100 µM; in experiment [7], > 100 µM (inactive). The GI50 in [8], in experiment [9], in experiment [10], in [11], in experiment [20] and in [12] was > 100 µM (inactive) throughout. For the same compound, the GI50 in experiment [13] was > 100 µM (inactive); in [14] it was > 100 µM (inactive); in [15], > 100 µM (inactive); in experiment [16] it was 4.76 µM (inactive); in [17], 97.9 µM (inactive); in [18] it was > 100 µM (inactive). In experiment [19], the GI50 is > 100 µM (inactive).

`COC(=O)NN(C(=O)OC)c1c(-c2ccccc2)nc(SC)n1N`: the GI50 in experiment [1] is > 100 µM (inactive); in experiment [2], > 100 µM (inactive); in experiment [3] it was > 100 µM (inactive); in [4], > 100 µM (inactive); in experiment [5], > 100 µM (inactive); in [6] it was more than 100 µM. Also, the GI50 in experiment [8], in experiment [9], in [10], in [11], in experiment [20] and in [12] was > 100 µM (inactive) each time. The GI50 in experiment [13], in [14], in [16], in experiment [17], in experiment [18] and in [19] was > 100 µM (inactive) in each case.

In the case of `COc1ccc(-n2c(C)nc3ccc(NC4OCC(OC(C)=O)C(OC(C)=O)C4OC(C)=O)cc3c2=O)cc1` (stereo not given), the GI50 in [1] is > 100 µM (inactive); in experiment [2], > 100 µM (inactive); in experiment [3], > 100 µM (inactive); in experiment [4] it was > 100 µM (inactive); in [5], > 100 µM (inactive); in experiment [6] it was more than 100 µM. The GI50 in experiment [7], in experiment [8], in experiment [9], in experiment [10], in experiment [11] and in experiment [20] was > 100 µM (inactive) in each case. Moreover, the GI50 in experiment [12], in [13], in experiment [14], in [16], in [17] and in experiment [18] was > 100 µM (inactive) throughout. Besides, the GI50 in experiment [19] was > 100 µM (inactive).

The values are drawn from ChEMBL document CHEMBL1201862, “PubChem BioAssay data set” (2004).
